# Experimental data reported in US20130072430A1, “METHODS FOR TREATMENT OR PROPHYLAXIS OF KIDNEY OR LIVER DYSFUNCTION” (NPS PHARMACEUTICALS, INC., priority 2010, published 2013).
# Test system: Human patients with short bowel syndrome
# Assay: Example 1: kidney diagnostic biomarkers (urea nitrogen, creatinine, GFR) in short bowel syndrome patients, every four weeks for 24 weeks
# Type: in vivo
# Protocol: Human patients with short bowel syndrome were divided into three groups: a control group (16 total individuals) to receive placebo, an experimental group (35 total individuals) to receive teduglutide at 0.05 mg/kg/day throughout the study, and an experimental group (32 total individuals) to receive teduglutide at 0.1 mg/kg/day throughout the study. Patients were treated by subcutaneous injection of placebo or the appropriate dose of teduglutide. As individuals with short bowel syndrome are likely to experience associated liver and kidney disease, known biomarkers of liver and kidney function were monitored every four weeks, for 24 weeks. The liver biomarkers tested included total bilirubin, ALT and AST and ALP. The kidney biomarkers tested included urea nitrogen, creatinine and GFR. Before administration of placebo or teduglutide, diagnostic biomarker levels were tested to establish a baseline for each individual.
# To visualize the effect of GLP-2 on the levels of the diagnostic biomarkers, the average change from baseline was calculated for the placebo and teduglutide treated groups for each visit after a baseline was established. The average change from baseline of each group is depicted in FIGS. […]. The numerical figures for each diaanostic biomarker at each time point are depicted in Table 1.
# The raw data for this sorting is reproduced in Table 2 below.
# [1] = Week 12, range >5%, teduglutide 0.1 mg/kg/day
# [2] = Week 12, range −5%<= and <=5%, teduglutide 0.05 mg/kg/day
# [3] = Week 12, range −5%<= and <=5%, teduglutide 0.1 mg/kg/day
# [4] = Week 16, range <−5%, teduglutide 0.05 mg/kg/day
# [5] = Week 16, range <−5%, teduglutide 0.1 mg/kg/day
# [6] = Week 16, range >5%, teduglutide 0.05 mg/kg/day
# [7] = Week 16, range >5%, teduglutide 0.1 mg/kg/day
# [8] = Week 16, range −5%<= and <=5%, teduglutide 0.05 mg/kg/day
# [9] = Week 16, range −5%<= and <=5%, teduglutide 0.1 mg/kg/day
# [10] = Week 20, range <−5%, teduglutide 0.05 mg/kg/day
# [11] = Week 20, range <−5%, teduglutide 0.1 mg/kg/day
# [12] = Week 20, range >5%, teduglutide 0.05 mg/kg/day
# [13] = Week 20, range >5%, teduglutide 0.1 mg/kg/day
# [14] = Week 20, range −5%<= and <=5%, teduglutide 0.05 mg/kg/day
# [15] = Week 20, range −5%<= and <=5%, teduglutide 0.1 mg/kg/day
# [16] = Week 24, range <−5%, teduglutide 0.05 mg/kg/day
# [17] = Week 24, range <−5%, teduglutide 0.1 mg/kg/day
# [18] = Week 24, range >5%, teduglutide 0.05 mg/kg/day
# [19] = Week 24, range >5%, teduglutide 0.1 mg/kg/day
# [20] = Week 24, range −5%<= and <=5%, teduglutide 0.05 mg/kg/day
# [21] = Week 24, range −5%<= and <=5%, teduglutide 0.1 mg/kg/day
smiles,measurement,setting,value
CC[C@H](C)[C@H](NC(=O)[C@H](Cc1ccccc1)NC(=O)[C@H](CC(=O)O)NC(=O)[C@H](CCCNC(=N)N)NC(=O)[C@H](C)NC(=O)[C@H](C)NC(=O)[C@H](CC(C)C)NC(=O)[C@H](CC(N)=O)NC(=O)[C@H](CC(=O)O)NC(=O)[C@H](CC(C)C)NC(=O)[C@@H](NC(=O)[C@@H](NC(=O)[C@H](CC(N)=O)NC(=O)[C@H](CCSC)NC(=O)[C@H](CCC(=O)O)NC(=O)[C@H](CC(=O)O)NC(=O)[C@H](CO)NC(=O)[C@H](Cc1ccccc1)NC(=O)[C@H](CO)NC(=O)CNC(=O)[C@H](CC(=O)O)NC(=O)CNC(=O)[C@@H](N)Cc1c[nH]cn1)[C@@H](C)O)[C@@H](C)CC)C(=O)N[C@@H](CC(N)=O)C(=O)N[C@@H](Cc1c[nH]c2ccccc12)C(=O)N[C@@H](CC(C)C)C(=O)N[C@H](C(=O)N[C@@H](CCC(N)=O)C(=O)N[C@H](C(=O)N[C@@H](CCCCN)C(=O)N[C@H](C(=O)N[C@H](C(=O)N[C@@H](CC(=O)O)C(=O)O)[C@@H](C)O)[C@@H](C)CC)[C@@H](C)O)[C@@H](C)CC [teduglutide],"CREATININE (RATE BLANKED) change from baseline: patients in range, n(%)",[1],17(53.1%)
same,"GFR change from baseline: patients in range, n(%)",[1],9(28.1%)
same,"UREA NITROGEN change from baseline: patients in range, n(%)",[1],14(43.8%)
same,"CREATININE (RATE BLANKED) change from baseline: patients in range, n(%)",[2],4(11.4%)
same,"GFR change from baseline: patients in range, n(%)",[2],5(14.3%)
same,"UREA NITROGEN change from baseline: patients in range, n(%)",[2],4(11.4%)
same,"CREATININE (RATE BLANKED) change from baseline: patients in range, n(%)",[3],4(12.5%)
same,"GFR change from baseline: patients in range, n(%)",[3],10(31.3%)
same,"UREA NITROGEN change from baseline: patients in range, n(%)",[3],3(9.4%)
same,"CREATININE (RATE BLANKED) change from baseline: patients in range, n(%)",[4],8(22.9%)
same,"GFR change from baseline: patients in range, n(%)",[4],7(20.0%)
same,"UREA NITROGEN change from baseline: patients in range, n(%)",[4],12(34.3%)
same,"CREATININE (RATE BLANKED) change from baseline: patients in range, n(%)",[5],10(31.3%)
same,"GFR change from baseline: patients in range, n(%)",[5],12(37.5%)
same,"UREA NITROGEN change from baseline: patients in range, n(%)",[5],9(28.1%)
same,"CREATININE (RATE BLANKED) change from baseline: patients in range, n(%)",[6],8(22.9%)
same,"GFR change from baseline: patients in range, n(%)",[6],11(31.4%)
same,"UREA NITROGEN change from baseline: patients in range, n(%)",[6],10(28.6%)
same,"CREATININE (RATE BLANKED) change from baseline: patients in range, n(%)",[7],12(37.5%)
same,"GFR change from baseline: patients in range, n(%)",[7],12(37.5%)
same,"UREA NITROGEN change from baseline: patients in range, n(%)",[7],9(28.1%)
same,"CREATININE (RATE BLANKED) change from baseline: patients in range, n(%)",[8],12(34.3%)
same,"GFR change from baseline: patients in range, n(%)",[8],10(28.6%)
same,"UREA NITROGEN change from baseline: patients in range, n(%)",[8],6(17.1%)
same,"CREATININE (RATE BLANKED) change from baseline: patients in range, n(%)",[9],8(25.0%)
same,"GFR change from baseline: patients in range, n(%)",[9],6(18.8%)
same,"UREA NITROGEN change from baseline: patients in range, n(%)",[9],12(37.5%)
same,"CREATININE (RATE BLANKED) change from baseline: patients in range, n(%)",[10],9(25.7%)
same,"GFR change from baseline: patients in range, n(%)",[10],10(28.6%)
same,"UREA NITROGEN change from baseline: patients in range, n(%)",[10],13(37.1%)
same,"CREATININE (RATE BLANKED) change from baseline: patients in range, n(%)",[11],7(21.9%)
same,"GFR change from baseline: patients in range, n(%)",[11],11(34.4%)
same,"UREA NITROGEN change from baseline: patients in range, n(%)",[11],12(37.5%)
same,"CREATININE (RATE BLANKED) change from baseline: patients in range, n(%)",[12],10(28.6%)
same,"GFR change from baseline: patients in range, n(%)",[12],10(28.6%)
same,"UREA NITROGEN change from baseline: patients in range, n(%)",[12],7(20.0%)
same,"CREATININE (RATE BLANKED) change from baseline: patients in range, n(%)",[13],13(40.6%)
same,"GFR change from baseline: patients in range, n(%)",[13],8(25.0%)
same,"UREA NITROGEN change from baseline: patients in range, n(%)",[13],11(34.4%)
same,"CREATININE (RATE BLANKED) change from baseline: patients in range, n(%)",[14],8(22.9%)
same,"GFR change from baseline: patients in range, n(%)",[14],7(20.0%)
same,"UREA NITROGEN change from baseline: patients in range, n(%)",[14],7(20.0%)
same,"CREATININE (RATE BLANKED) change from baseline: patients in range, n(%)",[15],9(28.1%)
same,"GFR change from baseline: patients in range, n(%)",[15],10(31.3%)
same,"UREA NITROGEN change from baseline: patients in range, n(%)",[15],6(18.8%)
same,"CREATININE (RATE BLANKED) change from baseline: patients in range, n(%)",[16],8(22.9%)
same,"GFR change from baseline: patients in range, n(%)",[16],8(22.9%)
same,"CREATININE (RATE BLANKED) change from baseline: patients in range, n(%)",[17],11(34.4%)
same,"GFR change from baseline: patients in range, n(%)",[17],6(18.8%)
same,"UREA NITROGEN change from baseline: patients in range, n(%)",[17],14(43.8%)
same,"CREATININE (RATE BLANKED) change from baseline: patients in range, n(%)",[18],9(25.7%)
same,"GFR change from baseline: patients in range, n(%)",[18],10(28.6%)
same,"UREA NITROGEN change from baseline: patients in range, n(%)",[18],7(20.0%)
same,"CREATININE (RATE BLANKED) change from baseline: patients in range, n(%)",[19],9(28.1%)
same,"GFR change from baseline: patients in range, n(%)",[19],14(43.8%)
same,"UREA NITROGEN change from baseline: patients in range, n(%)",[19],13(40.6%)
same,"CREATININE (RATE BLANKED) change from baseline: patients in range, n(%)",[20],9(25.7%)
same,"GFR change from baseline: patients in range, n(%)",[20],8(22.9%)
same,"UREA NITROGEN change from baseline: patients in range, n(%)",[20],2(5.7%)
same,"CREATININE (RATE BLANKED) change from baseline: patients in range, n(%)",[21],9(28.1%)
same,"GFR change from baseline: patients in range, n(%)",[21],9(28.1%)
same,"UREA NITROGEN change from baseline: patients in range, n(%)",[21],2(6.3%)
same,percent of the group experiencing a decrease in GFR greater than 5% versus placebo,both groups receiving teduglutide,always less than the percent of the group receiving placebo
same,"creatinine levels, average change versus baseline (FIG. 9)",groups receiving teduglutide,remained stable or decreased slightly
